Test results reported in US9340577B2, “HLA binding motifs and peptides and their uses” (priority 1992, dated 2016).
pIC50: −log10 of the molar value. No end group written: not given here.

What was measured:
Assay in all cases: biochemical
DRB1*0301 = DRB1*0301 (Homo sapiens, UniProt P01903+P01911, A100K/A102G/A103R/A169T/F55Y/I96L/K41T/L162R/M171V/P40S/Q125H/Q178H/Q39Y/R42S/S66N/T106N/T262R/W38E/Y61H); type: binding
DR1 (DRB1*0101) = DR1 (DRB1*0101) (Homo sapiens, UniProt P01903+P01911, A100R/D57E/F55L/F60I/F76Y/I96L/L162R/M171V/P40L/Q125E/R42F/V115G/Y59C); type: binding
DR4w4 (DRB1*0401) = DR4w4 (DRB1*0401) (Homo sapiens, UniProt P01903+P01911, A100K/A169T/F76Y/I96L/K127E/L162R/M171V/N62H/P40V/Q125Y/R42H/S133A/S149N/S66Y/V115G/V209L/W38E); type: binding
DRB1*0802 = DRB1*0802 (Homo sapiens, UniProt P01903+P01911, A100R/A103L/A169T/F76Y/H45Y/I96F/K41T/L162R/M171V/P40S/Q125H/Q178H/Q39Y/Q99D/R218S/R42G/S66Y/V115G/W38E); type: binding
DR7 (DRB1*0701) = DR7 (DRB1*0701) (Homo sapiens, UniProt P01903+P01911, A100R/A102G/A103Q/D57E/D86V/E43K/F76Y/K127E/L162R/M171V/P40G/Q125H/Q99D/R33Q/R42Y/R54Q/S133A/S66F/T210M/V115G/Y107V/Y59L/Y89S); type: binding
DRB1*1101 = DRB1*1101 (Homo sapiens, UniProt P01903+P01911, A100R/A169T/A87E/I96F/K41T/L162R/M171V/P40S/Q125H/Q178H/Q39Y/Q99D/R42S/S66Y/T262R/V115G/W38E); conditions: Binding affinity DRB1 *1101
DRB4*0101 = DRB4*0101 (Homo sapiens, UniProt P01903+P13762, G164S); type: binding
DRB5*0101 = DRB5*0101 (Homo sapiens, UniProt P01903+Q30154); conditions: Binding affinity DRB5 *0101
DRB1*1302 = DRB1*1302 (Homo sapiens, UniProt P01903+P01911, A100E/A169T/K41T/L162R/M171V/P40S/Q125H/Q178H/Q39Y/Q99D/R42S/S66N/T262R/V115G/W38E/Y61H); type: binding
DRB1*0901 = DRB1*0901 (Homo sapiens, UniProt P01903+P01911, A100R/A103E/D57H/D86V/F55Y/F60I/F76Y/I96F/K127E/L162R/M171V/P40D/Q125H/Q99R/R33Q/R42F/S133A/S66N/T210M/V115G/W38K/Y107V/Y59G/Y89S); type: binding
DRB1*0405 = DRB1*0405 (Homo sapiens, UniProt P01903+P01911, A100R/A169T/D86S/F76Y/I96L/K127E/L162R/M171V/N62H/P40V/Q125Y/R42H/S133A/S149N/S66Y/V115G/V209L/W38E); type: binding
DRB1*1501 = DRB1*1501 (Homo sapiens, UniProt P01903+P01911); type: binding
DRB1*1201 = DRB1*1201 (Homo sapiens, UniProt P01903+P01911, A100R/A169T/D57E/D86V/F55L/H45Y/K41T/L162R/M171V/P40S/Q125H/Q178H/Q39Y/Q99D/R42G/S66L/T262R/V114A/V67L/W38E/Y59H/Y61H/Y89S); type: binding

DRB1*0301, sequence (P01903 26-254 limits assumed, other chains not shown): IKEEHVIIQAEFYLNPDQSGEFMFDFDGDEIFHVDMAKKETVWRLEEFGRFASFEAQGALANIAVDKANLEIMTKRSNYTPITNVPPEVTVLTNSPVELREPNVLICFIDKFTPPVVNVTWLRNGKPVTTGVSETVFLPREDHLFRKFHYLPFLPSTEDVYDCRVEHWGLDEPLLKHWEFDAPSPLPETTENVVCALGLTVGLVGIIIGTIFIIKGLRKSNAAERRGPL
DRB1*1101, sequence (P01903 26-254 limits assumed, other chains not shown): as above
DRB1*1302, sequence (P01903 26-254 limits assumed, other chains not shown): as above

Molecule	pIC50 (DRB1*0301)	pIC50 (DR1 (DRB1*0101))	pIC50 (DR4w4 (DRB1*0401))	pIC50 (DRB1*0802)	pIC50 (DR7 (DRB1*0701))	pIC50 (DRB1*1101)	pIC50 (DRB4*0101)	pIC50 (DRB5*0101)	pIC50 (DRB1*1302)	pIC50 (DRB1*0901)	pIC50 (DRB1*0405)	pIC50 (DRB1*1501)	pIC50 (DRB1*1201)
KIGMIDDVTPISWTY [Peptide 90.0087]	7.15	5.49	7.70	5.08	< 4.70	< 4.70	5.51	< 4.70	8.01	< 4.70	< 4.70	5.35	
CC[C@H](C)[C@H](NC(=O)[C@H](Cc1ccccc1)NC(=O)[C@H](Cc1c[nH]c2ccccc12)NC(=O)CNC(=O)[C@H](Cc1ccccc1)NC(=O)[C@H](CC(C)C)NC(=O)[C@H](Cc1ccccc1)NC(=O)CNC(=O)[C@@H](N)CC(C)C)C(=O)N[C@@H](CCCCN)C(=O)N[C@@H](CO)C(=O)N[C@@H](CO)C(=O)N[C@@H](CC(N)=O)C(=O)N[C@@H](CCC(=O)O)C(=O)N[C@@H](C)C(=O)O [Peptide 68.0084]	< 4.70												6.32
GLYYWCDGEKIYFVK [Peptide 90.0226]	6.36	6.16		< 4.70	5.31	5.04	< 4.70	< 4.70		< 4.70		5.89	
HWKLIRMECAIMYTA [Peptide 90.0021]	7.09	7.55		4.85	5.58		6.79	5.51	7.27		7.08	5.42	
VSKLMSQLLNIPETH [Peptide 89.0101]	6.04	< 4.70	4.98	< 4.70	< 4.70	< 4.70	< 4.70	< 4.70	5.02	< 4.70		< 4.70	
AFQVIELQMALETLS [Peptide 89.0181]	7.48	5.51	7.21	5.09		5.67	6.46	5.77			6.60	< 4.70	
AKLMSNLLSIPETCM [Peptide 89.0066]	4.89	6.49	7.00	< 4.70	6.41	4.84	6.38	< 4.70	7.92	5.04	7.47	5.46	
KHIRLLECVLMYKARE [Peptide 1601.44]	7.14	6.92	7.17	5.75	5.17	6.21	7.41	5.79	6.38	5.13	6.63	7.13	
QHSFNDDIFDLSEMI [Peptide 90.0152]	6.27	7.38	7.43	5.12		5.36	8.68		7.77		6.42	6.16	
TAIFGVNPTIAEGFK [Peptide 89.0024]	6.43			4.96	6.74	5.39	6.23	4.75		5.35	7.77	4.94	
TPEWIERQTVLQHSF [Peptide 89.0048]	7.47	6.19	6.35		< 4.70		7.72	< 4.70	5.26	< 4.70		5.22	
VMAIFGVNPTVAEGF [Peptide 89.0080]	6.16	6.72	7.11	< 4.70	6.47	5.25	7.10	4.71	7.48	4.89	7.77		
EVQIALESLSTTIYN [Peptide 90.0231]	6.15		5.89	< 4.70	7.49	< 4.70	7.41	< 4.70	8.37	6.39	5.37		
IIHLKGDKNSLKCLR [Peptide 90.0218]	7.38		6.46				5.84	5.00	5.88		4.90	6.86	
VMFLRYQGVEFMSFL [Peptide 89.0014]	4.73	6.22	6.03	4.87	5.59		7.89	6.15		5.40	6.20	7.52	
ETCMLIQPPKLRSSV [Peptide 89.0029]	< 4.70	7.22	6.05	5.29	6.45		7.09		5.52	4.71	5.81	5.77	
GGDWKQIVMFLRYQG [Peptide 89.0013]	5.20	5.69	6.10		5.61	6.70	8.10	7.85	6.05				
CC[C@H](C)[C@H](NC(=O)CNC(=O)[C@H](CCC(=O)O)NC(=O)[C@H](Cc1c[nH]cn1)NC(=O)[C@@H](NC(=O)[C@H](Cc1ccc(O)cc1)NC(=O)[C@H](Cc1ccc(O)cc1)NC(=O)[C@H](CC(C)C)NC(=O)CN)C(C)C)C(=O)N[C@@H](CCCNC(=N)N)C(=O)N[C@H](C(=O)N[C@@H](Cc1ccc(O)cc1)C(=O)N[C@@H](Cc1ccccc1)C(=O)N[C@H](C(=O)N[C@@H](CCC(N)=O)C(=O)O)C(C)C)[C@@H](C)O [Peptide 90.0171]	6.16	7.59	6.18	5.13	5.25	5.27	8.72	< 4.70	6.27	6.00	5.33	5.79	
AYGISFMELVRPFKS [Peptide 89.0060]	5.15	6.19	5.76	6.80		7.29	7.51	5.52	5.35		5.37		
GQVIVCPASVSSNEV [Peptide 90.0016]	5.11	7.62	7.19		7.25	5.32	6.71	5.06	7.03	6.71		6.34	
LYGVSFMELIRPFQS [Peptide 89.0041]	< 4.70		5.28			7.41	8.66	5.22	< 4.70	7.19	5.74	5.81	
FIHFLQGAIISFVNS [Peptide 89.0088]	5.36	7.29	5.54	< 4.70		5.25	5.77	< 4.70	5.80	6.06			
